Patent US20230031406A1, “COMPOUNDS AND COMPOSITIONS FOR TREATING CONDITIONS ASSOCIATED WITH NLRP ACTIVITY” (Novartis AG, priority 2018, published 2023)
Where two headings read alike, the source gives them in different places. Each block holds one compound with its values, some of them ahead of it.

Test system: PMA-differentiated THP-1 cells
Assay: IL-1β production in PMA-differentiated THP-1 cells stimulated with gramicidin (hTHP-1 assay containing 2% fetal bovine serum; Procedures 1 and 2)
Type: cell-based, human
How it was run: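 IL-1β release from PMA-differentiated THP-1 macrophage-like cells was triggered by 5 μM gramicidin for 2 h after 1 h compound exposure, then measured by HTRF.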

[1] = Table B1, 2% fetal bovine serum, class symbols, read-out: Average IC50 of compounds in hTHP-1 assay: hTHP-1 IC50
[2] = Homo sapiens, THP-1, Table B2, 2% fetal bovine serum, class symbols, read-out: hTHP-1 IC50
[3] = Homo sapiens, THP-1, Table B1, 2% fetal bovine serum, numeric bounds, read-out: Average IC50 of compounds in hTHP-1 assay: hTHP-1 IC50
[4] = Table B2, 2% fetal bovine serum, class symbols, read-out: hTHP-1 IC50
[5] = Homo sapiens, THP-1, Table B1, 2% fetal bovine serum, class symbols, read-out: Average IC50 of compounds in hTHP-1 assay: hTHP-1 IC50
[6] = Homo sapiens, THP-1, Table B3, hTHP-1 assay, 2% fetal bovine serum, class symbols, read-out: IC50

IC50 [1]: 5 to 30 µM
Compound: CC(C)(O)c1nc(CO)c(S(N)(=O)=NC(=O)Nc2c3c(nc4c2CCC4)CCC3)s1 (single isomer, unassigned) [Compound 150a, (S) or (R)-N′-((1,2,3,5,6,7-hexahydrodicyclo-penta[b,e]pyridin-8-yl)carbamoyl)-4-(hydroxymethyl)-2-(2-hydroxypropan-2-yl)thiazole-5-sulfonimidamide]

IC50 [2]: 1 to 5 µM
Compound: CC(C)(O)c1cc(S(N)(=O)=NC(=O)Nc2c3c(nc4c2CCC4(C)C)CCC3)nn1-c1ccc(F)cc1 (stereo not drawn) [Compound 704, N′-((3,3-dimethyl-1,2,3,5,6,7-hexahydrodicyclopenta[b,e]pyridin-8-yl)carbamoyl)-1-(4-fluorophenyl)-5-(2-hydroxypropan-2-yl)-1H-pyrazole-3-sulfonimidamide]

IC50 [1]: 5 to 30 µM
Compound: Cc1sc(S(N)(=O)=NC(=O)Nc2c3c(nc4c2CCC4C)CCC3)nc1C(C)(C)O (single isomer, unassigned) [Compound 104b, (S,R/S) or (R,R/S)-4-(2-hydroxypropan-2-yl)-5-methyl-N′-((3-methyl-1,2,3,5,6,7-hexahydrodicyclo-penta[b,e]pyridin-8-yl)carbamoyl)thiazole-2-sulfonimidamide]

IC50 [3]: > 30 µM
Compound: CN(C)Cc1ccc(S(=O)(=NC(=O)Nc2c3c(nc4c2CCC4)CCC3)NC(=O)OC(C)(C)C)cc1 (stereo not drawn) [Compound 113, tert-butyl (4-((dimethylamino)methyl)-N-((1,2,3,5,6,7-hexahydrodicyclopenta[b,e]pyridin-8-yl)carbamoyl)phenylsulfonimidoyl)carbamate]

IC50 [2]: 0.2 to 1 µM
Compound: CC1(C)CCc2c1nc1c(c2NC(=O)N=S(N)(=O)c2cnc(C(C)(CO)CO)s2)CCC1 (stereo not drawn) [Compound 724]

IC50 [4]: 0.2 to 1 µM
Compound: Cc1c(C(F)(F)F)nc2c(c1NC(=O)N=S(N)(=O)c1cnc(C(C)(O)CO)s1)CCC2 (single isomer, unassigned) [Compound 605h, (S, R) or (R, R)-2-(1,2-Dihydroxypropan-2-yl)-N′-((3-methyl-2-(trifluoromethyl)-6,7-dihydro-5H-cyclopenta[b]pyridin-4-yl)carbamoyl) thiazole-5-sulfonimidamide]

IC50 [2]: 1 to 5 µM
Compound: NS(=O)(=NC(=O)Nc1c2c(nc3c1CCC3)CCC2)c1ccn(CC(F)(F)F)n1 (stereo not drawn) [Compound 685, N′-((1,2,3,5,6,7-hexahydrodicyclopenta[b,e]pyridin-8-yl)carbamoyl)-1-(2,2,2-trifluoroethyl)-1H-pyrazole-3-sulfonimidamide]

IC50 (Homo sapiens, THP-1, Table B3, hTHP-1 assay, 2% fetal bovine serum, numeric values, read-out: IC50): > 30 µM
Compound: Cc1c(C(=O)O)nc2c(c1NC(=O)N=S(N)(=O)c1cnc(C(C)(C)O)s1)CCC2 (stereo not drawn) [Example 636, 4-(3-(Amino(2-(2-hydroxypropan-2-yl)thiazol-5-yl)(oxo)-l6-sulfaneylidene)ureido)-3-methyl-6,7-dihydro-5H-cyclopenta[b]pyridine-2-carboxylic acid]

IC50 [3]: > 30 µM
Compound: CC(C)(O)c1ccc(S(N)(=O)=NC(=O)Nc2c3c(nc4c2CCC4)CCC3)cn1 (single isomer, unassigned) [Compound 156a, (S) or (R)-N′-((1,2,3,5,6,7-hexahydrodicyclo-penta[b,e]pyridin-8-yl)carbamoyl)-6-(2-hydroxypropan-2-yl)pyridine-3-sulfonimidamide]

IC50 [2]: 0.2 to 1 µM
Compound: Cc1c(C(F)(F)F)nc2c(c1NC(=O)N=S(N)(=O)c1ccn(C(C)C)n1)CCC2 (single isomer, unassigned) [Compound 628b, (R) or (S)-1-Isopropyl-N′-((3-methyl-2-(trifluoromethyl)-6,7-dihydro-5H-cyclopenta[b]pyridin-4-yl)carbamoyl)-1H-pyrazole-3-sulfonimidamide]

IC50 [4]: 0.2 to 1 µM
Compound: CC1(C)CCc2c1nc1c(c2NC(=O)N=S(N)(=O)c2ccn(-c3ccccc3)n2)CCC1 (single isomer, unassigned) [Compound 659b, (R) or (S)-N′-((3,3-dimethyl-1,2,3,5,6,7-hexahydrodicyclopenta [b,e]pyridin-8-yl)carbamoyl)-1-phenyl-1H-pyrazole-3-sulfonimidamide]

IC50 [5]: 0.04 to 0.2 µM
IC50 [4]: 0.008 to 0.04 µM
Compound: CC1(C)CCc2c1nc1c(c2NC(=O)N=S(N)(=O)c2cnc(C(C)(O)CO)s2)CCC1 (single isomer, unassigned) [Compound 201a, (R, R) or (S, R) or (R, S) or (S, S)-2-(1,2-Dihydroxypropan-2-yl)-N′-((3,3-dimethyl-1,2,3,5,6,7-hexahydrodicyclopenta [b,e]pyridin-8-yl)carbamoyl) thiazole-5-sulfonimidamide]

IC50 [3]: > 14 µM
Compound: CC(C)c1cc(NC(=O)N=S(N)(=O)c2cc(C(C)(C)O)cs2)c2c(n1)CCC2 (stereo not drawn) [Compound 182, 4-(2-hydroxypropan-2-yl)-N′-((2-isopropyl-6,7-dihydro-5H-cyclopenta[b]pyridin-4-yl)carbamoyl)thiophene-2-sulfonimidamide]

IC50 (Homo sapiens, THP-1, read-out: hTHP-1 IC50 in 2% FBS, hTHP-1 assay containing 2% fetal bovine serum, Table B5): 0.04 to 0.2 µM
Compound: CCn1cc(F)c(S(N)(=O)=NC(=O)Nc2c(C)c(C(F)(F)F)nc3c2CC(C)C3)n1 (single isomer, unassigned) [Compound 1101a]

IC50 [4]: 5 to 30 µM
Compound: Cc1cc(S(N)(=O)=NC(=O)Nc2c3c(nc4c2CCC4)CCC3)sc1C(C)(C)O (single isomer, unassigned) [Compound 692a, (S) or (R)-N′-((1,2,3,5,6,7-hexahydrodicyclopenta [b,e]pyridin-8-yl)carbamoyl)-5-(2-hydroxypropan-2-yl)-4-methylthiophene-2-sulfonimidamide]

IC50 [5]: 1 to 5 µM
Compound: Cn1nc(S(N)(=O)=NC(=O)Nc2c3c(nc4c2CCC4)CCC3)cc1C(C)(C)O (single isomer, unassigned) [Compound 158a, (R) or (S)-N′-((1,2,3,5,6,7-hexahydrodicyclo-penta[b,e]pyridin-8-yl)carbamoyl)-5-(2-hydroxypropan-2-yl)-1-methyl-1H-pyrazole-3-sulfonimidamide]

IC50 [6]: 0.2 to 1 µM
Compound: CC(C)(CO)c1ncc(S(N)(=O)=NC(=O)Nc2c3c(nc4c2CCC4(C)C)CCC3)s1 (stereo not drawn) [Example 605, N′-((3,3-dimethyl-1,2,3,5,6,7-hexahydrodicyclopenta[b,e]pyridin-8-yl)carbamoyl)-2-(1-hydroxy-2-methylpropan-2-yl)thiazole-5-sulfonimidamide]

IC50 (Homo sapiens, THP-1, Table B2, 2% fetal bovine serum, numeric bounds, read-out: hTHP-1 IC50): > 30 µM
Compound: CCC1CCc2c1nc1c(c2NC(=O)N=S(N)(=O)c2sc(C(C)(C)O)cc2F)CCC1 (single isomer, unassigned) [Compound 671a, (S, S) or (S, R) or (R, S) or (R, R)-N′-((3-ethyl-1,2,3,5,6,7-hexahydrodicyclopenta [b,e]pyridin-8-yl)carbamoyl)-3-fluoro-5-(2-hydroxypropan-2-yl) thiophene-2-sulfonimidamide]

IC50 [6]: 1 to 5 µM
Compound: CC1(C)CCc2nc3c(c(NC(=O)N=S(N)(=O)c4ccc([C@](C)(O)COCCOCc5ccccc5)s4)c21)CCC3 (stereo partly drawn) [Example 625, 5-((R)-1-(2-(benzyloxy)ethoxy)-2-hydroxypropan-2-yl)-N′-((1,1-dimethyl-1,2,3,5,6,7-hexahydrodicyclopenta[b,e]pyridin-8-yl)carbamoyl)thiophene-2-sulfonimidamide]

IC50 (Table B4, 2% fetal bovine serum, class symbols, read-out: hTHP-1 IC50): 0.008 to 0.04 µM
Compound: CCn1cc(F)c(S(N)(=O)=NC(=O)Nc2c3c(nc(C(F)(F)F)c2-c2ccc(F)cc2)CCC3)n1 (single isomer, unassigned) [Example 787, (R) or (S)-1-ethyl-4-fluoro-N′-((3-(4-fluorophenyl)-2-(trifluoromethyl)-6,7-dihydro-5H-cyclopenta[b]pyridin-4-yl)carbamoyl)-1H-pyrazole-3-sulfonimidamide]
